Patent publication US8871751B2, “Compositions and methods relating to nuclear hormone and steroid hormone receptors including inhibitors of estrogen receptor alpha-mediated gene expression and inhibition of breast cancer” (The Board of Trustees of the University of Illinois, priority 2008, dated 2014)
pIC50: −log10 of the molar value. Several values for one entry are separate records, joined by “and”; a condition that tells them apart may be missing. Equal entries are not always repeated. Where two headings read alike, the source gives them in different places.

Legend:
[1] = target: T1, PR (Homo sapiens, UniProt P06401); assay: PR transactivation, MMTV-luciferase reporter in T47D cells; format: cell-based
T1 construct: endogenous in cells; host or cells: T47D (stably transfected with GR and MMTV-luciferase)
T1 sequence (P06401 1-933): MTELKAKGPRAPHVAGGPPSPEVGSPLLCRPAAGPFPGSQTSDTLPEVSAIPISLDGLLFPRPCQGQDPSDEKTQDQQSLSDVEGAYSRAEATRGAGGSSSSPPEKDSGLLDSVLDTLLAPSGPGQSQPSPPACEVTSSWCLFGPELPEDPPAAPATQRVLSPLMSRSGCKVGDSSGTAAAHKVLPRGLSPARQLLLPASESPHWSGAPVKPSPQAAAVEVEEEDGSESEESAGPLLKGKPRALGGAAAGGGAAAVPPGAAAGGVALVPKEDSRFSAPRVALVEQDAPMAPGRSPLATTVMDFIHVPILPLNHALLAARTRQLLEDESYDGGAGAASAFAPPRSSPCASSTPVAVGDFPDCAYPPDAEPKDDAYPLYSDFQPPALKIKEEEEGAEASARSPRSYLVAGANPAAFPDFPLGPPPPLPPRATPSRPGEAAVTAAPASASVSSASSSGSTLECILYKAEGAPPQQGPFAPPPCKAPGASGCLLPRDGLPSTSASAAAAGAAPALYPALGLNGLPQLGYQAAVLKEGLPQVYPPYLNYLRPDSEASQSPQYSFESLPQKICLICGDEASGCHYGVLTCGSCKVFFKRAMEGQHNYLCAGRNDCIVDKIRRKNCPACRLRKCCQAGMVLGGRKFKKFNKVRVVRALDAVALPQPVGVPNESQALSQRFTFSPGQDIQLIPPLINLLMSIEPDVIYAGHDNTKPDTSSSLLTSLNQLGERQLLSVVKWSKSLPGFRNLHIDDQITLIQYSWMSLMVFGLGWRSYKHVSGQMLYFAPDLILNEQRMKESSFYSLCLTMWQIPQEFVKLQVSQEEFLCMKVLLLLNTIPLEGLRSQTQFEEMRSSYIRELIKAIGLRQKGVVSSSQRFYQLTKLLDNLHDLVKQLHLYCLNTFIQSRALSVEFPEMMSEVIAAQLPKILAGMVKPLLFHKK
Protocol: The T47D-KBluc cells stably express an (ERE)3-luciferase reporter gene (38). Cells were maintained in phenol red-free RPMI 1640 with 2 mM L-glutamine, 1.5 g/l sodium bicarbonate, 4.5 g/l glucose, 10 mM Hepes, pH 7.5, 1 mM sodium pyruvate, 10% FBS (Atlanta Biological, Atlanta, Ga.) and antibiotics. Four days before E2 induction, the cells were switched to the above medium, with 10% 2× charcoal-dextran-treated calf serum instead of FBS. 200,000 cells/well were transferred to each well of a 24-well plate. After 24 h the indicated concentrations of the test compounds were added in DMSO and E2 was added to 20 pM. After 24 h cells were washed once in PBS, and 150 μl 1× Passive Lysis Buffer (Promega, Madison Wis.) was used to lyse the cells. Luciferase activity was determined using firefly luciferase reagents from Promega (Madison, Wis.). T47D cells stably transfected to express GR and a mouse mammary tumor virus luciferase reporter that responds to liganded GR and PR were maintained and assayed in medium containing 5 nM progesterone for PR assays, or 2.5 nM dexamethsaone for GR assays, essentially as described (39).

[2] = target: T2, AR (Homo sapiens, UniProt P10275); assay: AR-mediated gene expression, PSA-luciferase reporter in stable HeLa-AR cells; format: cell-based; settings: for pIC50: 24 h
T2 construct: expressed in transfected cells; host or cells: HeLa (HeLa-AR / HeLaAR)
T2 sequence (P10275 1-920): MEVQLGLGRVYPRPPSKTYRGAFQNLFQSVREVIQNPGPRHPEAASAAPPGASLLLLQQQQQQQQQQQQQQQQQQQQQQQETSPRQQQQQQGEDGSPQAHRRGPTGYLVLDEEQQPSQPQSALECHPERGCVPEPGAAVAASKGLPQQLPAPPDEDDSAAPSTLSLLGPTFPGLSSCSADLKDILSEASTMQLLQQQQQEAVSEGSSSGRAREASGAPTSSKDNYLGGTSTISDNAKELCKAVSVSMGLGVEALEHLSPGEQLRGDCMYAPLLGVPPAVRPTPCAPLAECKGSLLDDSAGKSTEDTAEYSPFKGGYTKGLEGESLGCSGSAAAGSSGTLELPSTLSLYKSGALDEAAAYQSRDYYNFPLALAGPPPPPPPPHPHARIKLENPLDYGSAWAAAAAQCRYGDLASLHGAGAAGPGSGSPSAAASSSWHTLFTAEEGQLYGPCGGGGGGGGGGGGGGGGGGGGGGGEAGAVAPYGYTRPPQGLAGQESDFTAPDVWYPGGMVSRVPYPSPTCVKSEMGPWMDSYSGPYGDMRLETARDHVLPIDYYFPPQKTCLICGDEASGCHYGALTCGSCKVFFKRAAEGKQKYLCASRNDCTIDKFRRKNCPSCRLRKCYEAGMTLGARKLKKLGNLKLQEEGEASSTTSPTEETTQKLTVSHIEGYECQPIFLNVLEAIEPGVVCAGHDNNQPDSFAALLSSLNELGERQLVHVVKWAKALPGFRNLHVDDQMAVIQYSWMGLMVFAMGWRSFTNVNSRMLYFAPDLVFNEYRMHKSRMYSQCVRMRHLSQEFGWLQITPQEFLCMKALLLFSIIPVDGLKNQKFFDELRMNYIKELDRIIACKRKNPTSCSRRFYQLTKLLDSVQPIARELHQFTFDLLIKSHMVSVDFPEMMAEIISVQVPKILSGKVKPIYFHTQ
Protocol: FIG. 9. Effect of some Theophylline-related compounds on AR-mediated gene expression in stable HeLa-AR cells. Assays were performed as described for ER in the legend to FIG. 4 and PR/GR in FIG. 5. The cells were incubated with 80 pM DHT and the indicated concentration of each small molecule. Luciferase activity was measured after 24 hours. The data represent the mean±SEM for 3 separate experiments at each concentration.
Reporter Gene Assays. TPSF was identified by reporter gene assays comparing the ability of ˜200 compounds structurally related to TPBM (see reference 19) to inhibit transcription of a stably transfected (ERE)3-luciferase reporter gene in T47D-KBluc breast cancer cells (20). AR was assayed in stably transfected HeLa cells and GR was assayed in stably transfected T47D cells maintained as described above. Four days before each experiment the cells were switched to medium containing CD-treated serum as described above. The HeLaAR cells were plated at 100,000 cells/well and the T47D/A1-2 and T47D-KBluc cells were plated at 200,000 cells/well in 1 ml of their respective media in 24-well plates. After 24 hours the indicated concentrations of E2, dihydrotestosterone (DHT) or dexamethasone (Dex) and DMSO vehicle, with or without TPSF, were added to each well. After 24 hours, the cells were washed once in phosphate buffered saline and lysed using 100 μl of 1× Passive Lysis Buffer (Promega, Madison Wis.). Luciferase activity was determined using BrightGlo firefly luciferase reagent from Promega (Madison, Wis.).

[3] = HeLa-AR cells, 80 pM DHT, read-out: AR-IC50

PR at 30 μM [1] | AR at 10 μM [2] | pIC50 [2, 3] | effect on PR transactivation ([1]; 5 nM progesterone, up to 30 μM) | pIC50 ([2]; stably transfected HeLa cells, 1 μM DHT, read-out: IC50 for inhibition of AR gene expression (PSA-Luc)) | SMILES
71 | 50 | 5.30 | – | – | Cn1c(=O)c2[nH]c(C3CC4CCC3C4)nc2n(C)c1=O (centres unmarked) [Compound 101807, 8-Bicyclo[2.2.1]hept-2-yl-1,3-dimethyl-3,7-dihydro-purine-2,6-dione]
– | – | – | – | 4.48 and 4.47 | Cn1c(=S)c2[nH]c(SCCCC(=O)c3ccc(F)cc3)nc2n(C)c1=O [TPSF, Butyrophenone, p-fluoro-4-(1,2,3,6,-tetrahydro-1,3-dimethyl-2-oxo-6-thionopurin-8-ylthio)]

The next lines start with the compound.

SMILES | PR at 30 μM [1] | AR at 10 μM [2] | pIC50 [2, 3] | effect on PR transactivation ([1]; 5 nM progesterone, up to 30 μM) | pIC50 ([2]; stably transfected HeLa cells, 1 μM DHT, read-out: IC50 for inhibition of AR gene expression (PSA-Luc))
CCCSc1nc2c([nH]1)c(=O)n(C)c(=S)n2C [Compound 95869, 1,3-Dimethyl-8-propylsulfanyl-2-thioxo-1,2,3,7-tetrahydro-purin-6-one] | 0 | 90 | 6.00 | – | –
Cn1c(=O)c2[nH]c(SC3CCCCC3)nc2n(C)c1=S [Compound 95899, 8-Cyclohexylsulfanyl-1,3-dimethyl-2-thioxo-1,2,3,7-tetrahydro-purin-6-one] | 42 | 88 | 5.60 | – | –
Cn1c(=O)c2nc(CSCc3ccccc3)[nH]c2n(C)c1=O [Compound 95910, 8-Benzylsulfanylmethyl-1,3-dimethyl-3,7-dihydro-purine-2,6-dione] | – | – | – | did not significantly inhibit | –
